| melting point [°C] | SMILES |
| --- | --- |
| 106 to 107 | CC(C)c1nc(CCCO)n(Cc2ccncc2)c1Sc1cc(Cl)cc(Cl)c1 |
| 137 to 139 | CCOc1cc(C(CC(=O)CC)N2C(=O)c3cccc(NC(C)=O)c3C2=O)ccc1OC (stereo unspecified) |
| 219 to 221 | CN(Cc1ccc(NC(=O)C2=Cc3cc(-c4ccc(F)cc4)ccc3S(=O)(=O)CC2)cc1)C1CCOCC1 |
| 80 to 81 | CCOC(OCC)c1cc(-n2c(=O)cc(C(F)(F)F)n(N)c2=O)ccc1Cl |
| 166 to 167 | O=C(CSc1ccccc1)Nc1ccccc1C(=O)O |
| 105 to 106 | C=C(C)C(=O)OCCOc1ccc(OCCOC(=O)c2ccc(O)c(Cl)c2)cc1 |
| 124 to 125 | S=C(NCC1CCCCC1)NCC1CCCCC1 |
| 85 to 89 | CCCCCCCCCCCCCCCCCC(=O)ON1C(C)(C)CC(OC(=O)c2ccccc2)CC1(C)C |
| 114 | CCCN(c1nc(-c2ccc(Cl)cc2Cl)c(C=O)s1)C(C)c1ccncc1 (stereo unspecified) |
| 258 to 259 | N=C(C1=C(O)C(=O)c2ccccc2C1=O)c1ccccc1 |
| 231 to 232 | CC(C)Sc1cc2c(cc1Cl)N=CNS2(=O)=O |
| 181 to 182 | Cc1ccc(/C=C/C(=O)O)n1Cc1ccc(Cl)cc1Cl |
| 82 to 83 | CN(C)CCCOc1ccc(C(=O)NN)nc1 |
| 121 to 124 | CN(CCO)c1nc(-c2ccc(Cl)c(C(=O)NCC34CC5CC(CC(C5)C3)C4)c2)ccc1C(=O)O |
| 212 to 213 | CCC(=O)N(C)c1cccc(-c2ccc3nnc(NC)n3n2)c1 |
| 154 to 155 | CCCCOc1ccc2[nH]c3c([N+](=O)[O-])ccc(Cl)c3c(=O)c2c1 |
| 192 to 193 | COc1ccc(C=C2Cc3c(C)cc(C)c(O)c3C2=O)cc1 |
| 207 to 209 | Cn1cc(OS(C)(=O)=O)c(=O)c2cccc(F)c21 |
| 170 | O=C(NC[C@H]1CC[C@@H](Oc2ccc(F)cc2)CC1)c1ccc(O)cc1 |
| 192 to 193 | NC1=NS(=O)(=O)N=C1NCCCN(Cc1ccccc1)c1ccccn1 |
| 106 to 107 | CCCCc1nn(-c2ccc(C(F)(F)F)cn2)cc1CCCOc1ccccc1CC(=O)O |
| 151 to 152 | N#Cc1c(Br)[nH]c(Br)c1Br |
| 220 to 222 | O=C(NCc1ccc(F)cc1-n1cncn1)c1nc2n(c(=O)c1O)CCN2CCO |
| 262 | CCOC(=O)c1cn(C)c2cnc3cc(F)c(N4CCC(O)(c5cccc(C(F)(F)F)c5)CC4)cc3c2c1=O |

| melting point [°C] | SMILES |
| --- | --- |
| 218 to 221 | Cc1ccc2[nH]c3ccc(C)cc3c2c1 |
| 93 to 94 | c1cc2c3c(c1)nc(N1CCOCC1)n3CCC2 |
| 93 to 95 | CCC1C(=O)N2CCCC(C(=O)OC(C)(C)C)N2C1=O (stereo unspecified) |
| 145 | Cn1cc(-c2ccccc2)c(C(=O)NCCNC(=O)OC(C)(C)C)n1 |
| 235 to 237 | COc1ccc(-c2cnc3[nH]c(=O)n(CC4CCCCC4)c3n2)cn1 |
| 108 to 111 | CC(C)(C)C(=O)C(C(CC#N)c1ccccc1)n1ccnc1 (stereo unspecified) |
| 70 to 72 | COc1ccc2oc(C(N)=O)c(OCc3ccccc3)c2c1 |
| 126 to 128 | N#Cc1ccc(C=CC(=O)c2ccccc2N)cc1 |
| 145 | CCN(c1nc(C)cc(C(=O)N2CCOCC2)n1)c1ccc(C(C)C)cc1Br |
| 267 to 269 | O=C1C2Cc3c(nc(Br)n3Cc3ccccc3)CN2C(=O)N1c1ccccc1 (stereo unspecified) |
| 182 to 183 | O=C(O)c1ccc(OCCCO/N=C/c2cn(Cc3ccccc3)c3ccccc23)cc1O |
| 160 to 161 | O=C1N[C@H](Cc2ccc(F)cc2)[C@H](c2ccc(C(F)(F)F)cc2)O1 (racemic) |
| 64 to 66 | CC(=O)OCC1Cc2cc(I)ccc2N1 (stereo unspecified) |
| 174 to 176 | CCOC(=O)c1c2n(c3c(F)c(N4CCC(NC(=O)OC(C)(C)C)C4)c(F)cc3c1=O)C(C)S2 (stereo unspecified) |
| 72 | Brc1cn2c(Br)cnc2c(N2CCCCC2)n1 |
| 75 to 77 | CCCCCCCCCCCCCCCCCCOc1cccc(N(CC(=O)OC)CC(=O)OC)c1 |
| 213 | O=S(=O)(c1ccc(S(=O)(=O)C2CCCCC2)nc1)C1CCCCC1 |
| 160 to 163 | C/C(=C(\C#N)C(N)=S)N1CCC(O)CC1 |
| 163 to 167 | CC(C)c1cc([N+](=O)[O-])cc(C(C)C)c1OS(N)(=O)=O |
| 128 to 130 | Fc1ccc(-n2nc(-c3nc(-c4ccccc4)cs3)c3c2C2CCC3C2)c(F)c1 (stereo unspecified) |
| 120 to 122 | CN(C)C(=O)C1CCN(c2c(Cl)cncc2Cl)CC1 |
| 213 to 215 | C/C(=C\c1ccc(NC(=O)c2cc([Si](C)(C)C)cc([Si](C)(C)C)c2)cc1F)C(=O)O |
| 116 to 158 | Cc1c(C(N)=O)oc2c(C(=O)NCCCN3CCN(c4cc(Cl)ccc4O)CC3)cccc2c1=O |
| 136 to 139 | CCn1cc(C(=O)NCc2ccc(Cl)cc2)c(=O)c2cc(CCCCO)sc21 |

| melting point [°C] | SMILES |
| --- | --- |
| 226 to 233 | COc1ccc(N2CCOCC2)c2sc(-c3nc(-c4ccccc4)c[nH]3)nc12 |
| 120 to 123 | COc1ncccc1NC(=O)Nc1ccc(N2CCN(C(=O)Nc3ccc(OCCO)cc3C(F)(F)F)CC2)cc1 |
| 126 to 129 | CCCc1c(O)ccc2c1OCCC2=O |
| 233 to 234 | Nc1nc2c(nnn2COC(CO)CO)c(=O)[nH]1 |
| 118 | C=CC(=O)N(c1cc(-n2ncc(=O)n(C)c2=O)c(F)cc1C#N)S(=O)(=O)CC |
| 84 to 85 | C#CCOc1c(Cl)cc(Cl)cc1C(=O)NCC1CCCN1C1CCCCC1 (stereo unspecified) |
| 255 | O=C(Oc1cccc2c(-c3ccccc3)c3cccc(OC(=O)c4ccccc4)c3c(OC(=O)c3ccccc3)c12)c1ccccc1 |
| 166 to 168 | O=S(c1[nH]c(Br)c(Br)c1-c1ccc(Cl)cc1)C(F)(F)F (stereo unspecified) |
| 177 to 179 | CSc1nnc(-c2ccc3ccccc3c2)n1C |
| 145 to 149 | CC(C(=O)O)c1ccc(-c2ccc(Cl)cc2F)c(O)c1 (stereo unspecified) |
| 157 to 160 | O=c1ccn(C2CC(O)C(COC3(c4ccccc4)c4ccccc4Oc4ccccc43)O2)c(=O)[nH]1 (stereo unspecified) |
| 250 to 252 | Oc1ccc2cc(-c3noc4ccc(O)cc34)ccc2c1 |
| 232 to 242 | O=c1[nH]ncc2[nH]c(-c3ccc(OC(F)F)c4c3C=CC(C3CC3)O4)cc12 (stereo unspecified) |
| 191 to 192 | O=C(Nc1nc(C(F)(F)F)c(Br)s1)c1ccc(Cl)c(Cl)c1 |
| 101 to 102 | C(=C\c1nc(COc2ccc(CCCCCn3ccnc3)cc2)co1)/c1ccccc1 |
| 192 to 193 | Cc1cc2c(c3c1NC(=O)C(C)(C)C3)OC(CBr)C2C (stereo unspecified) |
| 93 to 96 | O=P(O)(O)CCCCCCCCCCCC(F)(F)C(F)(F)C(F)(F)C(F)(F)F |
| 156 to 159 | COc1ccc(-c2ccnc(N3CCN(c4c(C)c(C)c5c(c4C)CC(C)(C)O5)CC3)n2)cc1 |
| 46 to 48 | CNC(C(C)C)C(c1ccccc1)c1ccccc1 (stereo unspecified) |
| 110 to 112 | CC(=O)c1cc(Cl)cc(Oc2ncccc2C(=O)NCc2ccc(C(C)(C)O)cc2)c1 |
| 73 to 75 | C#CCOc1cc(N=C(C=NOC)N2CCCC2)c(F)cc1Cl |
| 110 | CN[C@@H]1COc2cc(Cl)cc(-c3ccc(Cl)cc3C)c2O1 |
| 165 to 167 | Cn1c(COc2ccc(CC3SC(=O)NC3=O)cc2)nc2ccc(Oc3cccc(NC(=O)Nc4ccccc4)c3)cc21 (stereo unspecified) |
| 84 to 85 | CCCCCCCCCCCCCCCC(=O)NCCCSc1ccncc1 |

| melting point [°C] | SMILES |
| --- | --- |
| 148 to 153 | CN(C)CCNCCn1nc2c3c(c(NCCNCCO)ccc31)C(=O)c1c(O)ccc(O)c1-2 |
| 148 to 149 | CCOCn1nccc1C(=O)c1ccc(OCC(=O)O)c(Cl)c1Cl |
| 193 to 194 | C#CCn1c2ccc(Br)cc2c2cc(Br)ccc21 |
| 128 to 130 | CCC1NC(=O)N(c2ccccc2)C(=O)N1OC(C)=O (stereo unspecified) |
| 252 to 254 | O=C1CCn2c(-c3cccs3)nc3c(Cl)ccc1c32 |
| 115 to 117 | NC(=O)Cc1cccc(Oc2ccccc2)c1 |
| 174 to 175 | Cc1ccc(C(=S)c2ccc3n2CCCC3C(=O)O)cc1 (stereo unspecified) |
| 90 | CCN(CC)CCNc1cc(Cl)cc(NCCN(CC)CC)c1[N+](=O)[O-] |
| 172 | O=C1c2ccccc2C(=O)N1CCOc1cc(F)ccc1O |
| 151 to 155 | CCCc1c(OCCCOc2ccc(C(C)=O)c(OCC(=O)O)c2CCC)ccc(C(C)=O)c1O |
| 135 to 136 | COc1cc(C(=O)c2ccc(C)cc2)cc(C(=O)O)c1OC |
| 83 to 85 | OCC=C(c1ccc(I)cc1)c1ccc(I)cc1 |
| 154 to 156 | COCc1c(-c2ccncc2)[nH]c(-c2ccncc2)c1C(C)=O |
| 77 to 79 | CCOC(=O)c1c(Cl)c(-c2ncc(Cl)cc2F)nn1C |
| 150 to 153 | CC(C)C[C@H](NC(=O)Cc1csc2ccccc12)C(=O)N[C@@H](Cc1ccccc1)C(=O)CSCc1ccco1 |
| 107 to 109 | CCCCCCCCCCCCCCCC(=O)Nc1cscc1NC(=O)CCCCCCCCCCCCCCC |
| 160 | CC(C)(c1cc(F)cc([N+](=O)[O-])c1O)c1cc(Cl)cc([N+](=O)[O-])c1O |
| 141 to 142 | COc1cccc2c(=O)c(-c3cccc(C(F)(F)F)c3Cl)nn(Cc3ccc(F)cc3F)c12 |
| 188 to 190 | CC(C)SC(=S)N1Cc2[nH]c3ccccc3c2CC1C(=O)O (stereo unspecified) |
| 112 to 116 | O=C(NCCc1ccccc1)[C@@H]1Cc2ccccc2N1 |
| 148 to 150 | Oc1ncnc2c1c(Nc1cccc(Cl)c1)nn2Cc1ccccc1 |

| SMILES | melting point [°C] |
| --- | --- |
| Cc1ccc(S(=O)(=O)c2ccc3[nH]cc(CCN)c3c2)cc1 | 137 to 140 |
| CC(C)(C)[PH](=O)Cc1ccccc1 (stereo unspecified) | 80 to 82 |
| CC(C)(CO)NC(=O)c1nn(-c2c(F)cc(F)cc2F)c2c1C1CCC2C1 (stereo unspecified) | 122 to 125 |
| COC(=O)COc1ccc(CC(C)NCC(O)c2ccc(O)c(CO)c2)cc1 (stereo unspecified) | 60 to 63 |
| COC(=O)Cc1cc2c(s1)NC(=S)C(C)N=C2c1ccccc1Cl (stereo unspecified) | 196 to 197 |
| CN1CCCCc2[nH]c3ccccc3c2CC1 | 128 to 131 |
| CCCN1C(=O)N(c2ccc([N+](=O)[O-])c(C(F)(F)F)c2)C(=O)C1(C)C | 102 |
| CC(C)NCC(O)c1cc(F)cc(C#N)c1 (stereo unspecified) | 85.5 to 86.5 |

Source: a melting point compilation (Tetko et al.; mined from patent text by program, amines drawn as free bases though some values may be those of a salt)
